# pEC50, pIC50: −log10 of the molar value.
# Assays:
# [1] = target: T1, Transient receptor potential cation channel subfamily V member 1 (Homo sapiens, UniProt Q8NER1); assay: Inhibition of capsaicin-induced calcium uptake by transient receptor potential vanilloid type 1 expressed in CHO cells; type: functional, cell-based
# [2] = target: T1, Transient receptor potential cation channel subfamily V member 1; assay: Inhibition of pH-induced calcium uptake by transient receptor potential vanilloid type 1 expressed in CHO cells; type: functional, cell-based
# [3] = target: T1, Transient receptor potential cation channel subfamily V member 1; assay: Agonistic activity for transient receptor potential vanilloid type 1 expressed in CHO cells; type: functional, cell-based
# [4] = Steady state volume of distribution in rat after intravenous administration of 3 mg/kg; type: ADME, organism-based; set-up: dose 3 mg/kg, route intravenous; settings: in vivo, read-out: Vss
# [5] = Half life in rat after intravenous administration of 3 mg/kg; type: ADME, organism-based; set-up: dose 3 mg/kg, route intravenous; settings: in vivo
# [6] = Area under concentration time curve from time 0 to infinity was determined in rat after intravenous administration of 3 mg/kg; type: ADME, organism-based; set-up: time infinity, dose 3 mg/kg, route intravenous; settings: in vivo
# [7] = Peak plasma concentration in rat after oral administration of 5 mg/kg; type: ADME, organism-based; set-up: dose 5 mg/kg, route oral
# [8] = Area under concentration time curve from time 0 to infinity was determined in rat after oral administration of 5 mg/kg; type: ADME, organism-based; set-up: time infinity, dose 5 mg/kg, route oral; settings: in vivo
# [9] = Maximum time required to attain Cmax in rat after oral administration of 5 mg/kg; type: ADME, organism-based; set-up: dose 5 mg/kg, route oral; settings: in vivo
# [10] = Oral bioavailability in rat (dose 5 mg/kg); type: ADME, organism-based; settings: in vivo
# [11] = Plasma clearance in rat after intravenous administration of 3 mg/kg; type: ADME, organism-based; set-up: dose 3 mg/kg, route intravenous
# [12] = Half life in rat after intravenous administration of 2 mg/kg; type: ADME, organism-based; set-up: dose 2 mg/kg, route intravenous; settings: in vivo
# [13] = Area under concentration time curve from time 0 to infinity was determined in rat after intravenous administration of 2 mg/kg; type: ADME, organism-based; set-up: time infinity, dose 2 mg/kg, route intravenous; settings: in vivo
# [14] = Steady state volume of distribution in rat after intravenous administration of 2 mg/kg; type: ADME, organism-based; set-up: dose 2 mg/kg, route intravenous; settings: in vivo, read-out: Vss
# [15] = Plasma clearance in rat after intravenous administration of 2 mg/kg; type: ADME, organism-based; set-up: dose 2 mg/kg, route intravenous
# T1 sequence (Q8NER1 whole entry): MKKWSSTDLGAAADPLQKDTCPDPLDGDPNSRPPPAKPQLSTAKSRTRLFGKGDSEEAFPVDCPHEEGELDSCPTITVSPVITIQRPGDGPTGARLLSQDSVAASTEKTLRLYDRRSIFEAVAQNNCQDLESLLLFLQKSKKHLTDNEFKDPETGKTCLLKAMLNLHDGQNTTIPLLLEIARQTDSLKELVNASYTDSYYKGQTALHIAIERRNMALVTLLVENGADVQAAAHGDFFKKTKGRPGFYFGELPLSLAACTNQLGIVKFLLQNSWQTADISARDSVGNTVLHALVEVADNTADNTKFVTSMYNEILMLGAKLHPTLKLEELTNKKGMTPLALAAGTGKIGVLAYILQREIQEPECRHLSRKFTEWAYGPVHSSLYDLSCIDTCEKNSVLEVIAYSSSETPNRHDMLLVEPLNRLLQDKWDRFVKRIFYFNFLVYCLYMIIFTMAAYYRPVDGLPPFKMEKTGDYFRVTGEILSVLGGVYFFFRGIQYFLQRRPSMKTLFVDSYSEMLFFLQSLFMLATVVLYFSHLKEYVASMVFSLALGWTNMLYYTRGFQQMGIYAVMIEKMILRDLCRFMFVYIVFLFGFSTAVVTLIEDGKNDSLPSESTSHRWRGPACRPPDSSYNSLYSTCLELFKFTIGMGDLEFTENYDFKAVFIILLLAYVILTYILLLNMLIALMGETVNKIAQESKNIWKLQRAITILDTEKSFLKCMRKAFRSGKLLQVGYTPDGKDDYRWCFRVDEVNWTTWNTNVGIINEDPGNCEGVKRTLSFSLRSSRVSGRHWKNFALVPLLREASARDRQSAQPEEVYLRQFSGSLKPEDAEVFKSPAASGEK
SMILES,pIC50 [1],pIC50 [2],other results
COc1ccc(NC(=O)/C=C/c2ccc(C(C)(C)C)cc2)cc1,6.85,< 5.40,–
Oc1cc2c(cc1O)CN(C(=S)NCCc1ccc(Cl)cc1)CCC2 [CAPSAZEPINE],6.38,–,–
O=C(/C=C/c1ccc(O)cc1)Nc1ccc2c(c1)OCCO2,< 5.40,< 5.40,–
O=C(/C=C/c1ccc(C(F)(F)F)nc1N1CCCCC1)Nc1ccc2c(c1)OCCO2,7.57,7.27,–
CC(C)(C)c1ccc(/C=C/C(=O)Nc2ccc3c(c2)OCCO3)c(C(=O)O)c1,< 5.40,< 5.40,–
CC(C)(C)c1ccc(/C=C/C(=O)Nc2ccc3c(c2)NCCC3)cc1,7.44,6.80,–
CC(C)(C)c1ccc(/C=C(/C(=O)Nc2ccc3c(c2)OCCO3)c2ccccc2)cc1,< 5.40,< 5.40,–
CCc1ccc(/C=C/C(=O)Nc2ccc3c(c2)OCCO3)cc1,6.77,6.66,–
O=C(/C=C/c1ccccc1)Nc1ccc2c(c1)OCCO2,< 5.40,< 5.40,–
CC(C)(C)c1ccc(/C=C/C(=O)Nc2ccc3c(c2)OCCO3)cn1,7.00,5.62,–
CC(C)(C)c1ccc(/C=C/C(=O)Nc2ccc3c(c2)NC(=O)CO3)cc1,8.19,< 5.40,–
Cc1ccc(/C=C/C(=O)Nc2ccc3c(c2)OCCO3)cc1,6.68,5.96,–
CC(C)(C)c1ccc(/C=C/C(=O)Nc2ccc3c(c2)OCCO3)c(Br)c1,7.22,6.33,–
O=C(/C=C/c1ccc(Br)cc1)Nc1ccc2c(c1)OCCO2,6.96,6.43,–
CC(C)(C)c1ccc(/C=C/C(=O)Nc2ccc3c(c2)CCCC3)cc1,7.21,6.02,–
Cc1nc(C(F)(F)F)ccc1/C=C/C(=O)Nc1ccc2c(c1)OCCO2,6.44,6.06,–
C/C(=C\C(=O)Nc1ccc2c(c1)OCCO2)c1ccc(C(C)(C)C)cc1,–,6.37,–
CCOC(=O)c1cc(C(C)(C)C)ccc1/C=C/C(=O)Nc1ccc2c(c1)OCCO2,7.82,7.59,–
O=C(/C=C/c1ccc(C(F)(F)F)cc1)Nc1ccc2c(c1)OCCO2,7.34,7.00,–
O=C(/C=C/c1ccc([N+](=O)[O-])cc1)Nc1ccc2c(c1)OCCO2,6.72,6.36,–
CC(C)(C)c1ccc(C(=CC(=O)Nc2ccc3c(c2)OCCO3)c2ccc(C(C)(C)C)cc2)cc1,5.57,< 5.40,–
O=C(/C=C/c1ccc(C(F)(F)F)nc1N1CCOCC1)Nc1ccc2c(c1)OCCO2,7.82,7.40,–

SMILES,pIC50 [1],pIC50 [2],other results
CC/C(=C\c1ccc(C(C)(C)C)cc1)C(=O)Nc1ccc2c(c1)OCCO2,6.68,6.10,–
CC(C)(C)c1cccc(/C=C/C(=O)Nc2ccc3c(c2)OCCO3)c1,6.21,< 5.40,–
O=C(/C=C/c1ccc(-c2ccccc2)cc1)Nc1ccc2c(c1)OCCO2,< 5.40,< 5.40,–
CC(C)(C)c1ccc(/C=C/C(=O)Nc2ccc3c(c2)OCC(=O)N3)cc1,6.57,< 5.40,–
COc1cc(NC(=O)/C=C/c2ccc(C(C)(C)C)cc2)ccc1O,–,–,pEC50 [3]: 6.36
CC(C)Cc1ccc(/C=C/C(=O)Nc2ccc3c(c2)OCCO3)cc1,6.44,6.07,–
COc1cccc(NC(=O)/C=C/c2ccc(C(C)(C)C)cc2)c1,7.68,< 5.40,–
CC(C)(C)c1ccc(/C(=C/C(=O)Nc2ccc3c(c2)OCCO3)c2ccccc2)cc1,7.70,6.92,–
CC(C)(C)c1ccc(/C=C/CNc2ccc3c(c2)OCCO3)cc1,< 5.40,< 5.40,–
O=C(/C=C/c1ccc(Cl)cc1)Nc1ccc2c(c1)OCCO2,6.60,6.49,–
CC(C)(C)c1ccc(/C=C/C(=O)Nc2ccc3c(c2)OCCN3)cc1,7.80,7.24,–
O=C(/C=C/c1ccc(F)cc1)Nc1ccc2c(c1)OCCO2,6.00,< 5.40,–
CN(C(=O)/C=C/c1ccc(C(C)(C)C)cc1)c1ccc2c(c1)OCCO2,< 5.40,< 5.40,–
O=C(/C=C/c1ccc(C(F)(F)F)nc1)Nc1ccc2c(c1)OCCO2,6.06,5.89,–
CC(C)(C)c1ccc(/C=C/C(=O)Nc2ccc3c(c2)OCCO3)nc1,6.30,5.54,–
CC(C)(C)c1ccc(/C=C/C(=O)Nc2ccc3c(c2)NC(=O)CC3)cc1,–,7.15,–
COc1ccccc1NC(=O)/C=C/c1ccc(C(C)(C)C)cc1,6.26,< 5.40,–
CC(C)C/C(=C\C(=O)Nc1ccc2c(c1)OCCO2)c1ccc(C(C)(C)C)cc1,7.80,7.03,–
CC(C)(C)c1ccc(/C=C/C(=O)Nc2ccc3c(c2)OCCO3)cc1 (stereo in doubt; 34),–,5.49,–
CCCCc1ccc(/C=C/C(=O)Nc2ccc3c(c2)OCCO3)cc1,6.44,5.57,–
CC(C)(C)c1ccc(/C(=C/C(=O)Nc2ccc3c(c2)OCCO3)c2ccncc2)cc1,7.36,6.18,–
C/C(=C\c1ccc(C(C)(C)C)cc1)C(=O)Nc1ccc2c(c1)OCCO2,–,6.22,–

SMILES,pIC50 [1],pIC50 [2],other results
CC(C)(C)c1ccc(/C=C/C(=O)Nc2ccc3c(c2)OCCO3)cc1 (stereo in doubt; 1),7.77,6.82,Vd [4]: 2.1 L/kg; half-life [5]: 1.1 h; AUC [6]: 680 ng·h/mL; Cmax [7]: 25 ng/mL; AUC(0-inf) [8]: 24 ng·h/mL; Tmax [9]: 0.5 h; bioavailability [10]: 3%; clearance [11]: 73.3 mL/min/kg
CN(C)CCC/C(=C\C(=O)Nc1ccc2c(c1)OCCO2)c1ccc(C(C)(C)C)cc1,5.41,< 5.40,–
COc1ccc(NC(=O)/C=C/c2ccc(C(C)(C)C)cc2)cc1O,–,< 5.40,–
CC(C)(C)c1ccc(CCC(=O)Nc2ccc3c(c2)OCCO3)cc1,6.82,6.18,–
CC(C)(C)c1ccc(/C=C/C(=O)Nc2ccc3cccnc3c2)cc1,–,8.69,–
CC(C)(C)c1ccc(C2CC2C(=O)Nc2ccc3c(c2)OCCO3)cc1 (centres undefined),5.74,< 5.40,–
CC(C)(C)c1ccc(/C(=C/C(=O)Nc2ccc3c(c2)OCCO3)c2ccc(C(F)(F)F)cc2)cc1,7.60,6.74,–
O=C(/C=C/c1ccc(C(F)(F)F)nc1N1CCCCC1)Nc1ccc2cccnc2c1,9.38,9.00,half-life [12]: 2.9 h; AUC [13]: 2100 ng·h/mL; Vd [14]: 2.8 L/kg; Cmax [7]: 320 ng/mL; AUC [8]: 2400 ng·h/mL; Tmax [9]: 2 h; F [10]: 17%; CL ([15]; in vivo): 13 mL/min/kg
CC(C)c1ccc(/C=C/C(=O)Nc2ccc3c(c2)OCCO3)cc1,7.26,7.09,–
CC(C)(C)c1ccc(/C=C/C(=O)Nc2ccc3c(c2)NCCO3)cc1,6.96,< 5.40,–
CC(C)(C)c1ccc(/C(=C/C(=O)Nc2ccc3c(c2)OCCO3)CCC(=O)O)cc1,< 5.40,< 5.40,–
CC(C)(C)c1ccc(/C=C/C(=S)Nc2ccc3c(c2)OCCO3)cc1,6.55,5.85,–
CC(C)(C)c1ccc(/C=C/C(=O)Nc2ccccc2)cc1,–,< 5.40,–
COc1ccc(/C=C/C(=O)Nc2ccc3c(c2)OCCO3)cc1,5.74,< 5.40,–
CC(C)(C)c1ccc(/C=C/C(=O)Nc2ccc3c(c2)OCO3)cc1,6.24,< 5.40,–
O=C(/C=C/c1ccc(C(F)(F)F)nc1N1CCOCC1)Nc1ccc2cccnc2c1,8.72,8.89,half-life [12]: 0.9 h; AUC [13]: 2300 ng·h/mL; Vd [14]: 1.1 L/kg; Cmax [7]: 540 ng/mL; AUC(0-inf) [8]: 2600 ng·h/mL; Tmax [9]: 1.5 h; bioavailability [10]: 39%; clearance ([15]; plasma): 15 mL/min/kg
CC(C)(C)c1ccc(/C(=C/C(=O)Nc2ccc3c(c2)OCCO3)c2cccnc2)cc1,7.11,6.29,–
CC(C)(C)c1ccc(/C=C/C(=O)Oc2ccc3c(c2)OCCO3)cc1,–,5.49,–
CCOC(=O)CC/C(=C\C(=O)Nc1ccc2c(c1)OCCO2)c1ccc(C(C)(C)C)cc1,7.44,6.54,–
CC(C)(C)c1ccc(/C(=C/C(=O)Nc2ccc3c(c2)OCCO3)Cc2ccccc2)cc1,7.85,6.96,–
COc1ccc(NC(=O)/C=C/c2ccc(C(C)(C)C)cc2)cc1OC,6.77,< 5.40,–
